Test results from US11377442B2, “Small molecule agonists and antagonists of NR2F6 activity” (ZANDER THERAPEUTICS, INC., priority 2016, dated 2022).
Read-outs that look alike come from different tables or passages of the source.

Key:
Type in all cases: cell-based
NR2F6 = molecular target: T1, NR2F6 (Homo sapiens, UniProt P10588); experiment: NR2F6 agonist screening, Firefly signal cmpd/DMSO
T1 construct: expressed in transfected cells; also transient transfection
T1 sequence (P10588 1-404): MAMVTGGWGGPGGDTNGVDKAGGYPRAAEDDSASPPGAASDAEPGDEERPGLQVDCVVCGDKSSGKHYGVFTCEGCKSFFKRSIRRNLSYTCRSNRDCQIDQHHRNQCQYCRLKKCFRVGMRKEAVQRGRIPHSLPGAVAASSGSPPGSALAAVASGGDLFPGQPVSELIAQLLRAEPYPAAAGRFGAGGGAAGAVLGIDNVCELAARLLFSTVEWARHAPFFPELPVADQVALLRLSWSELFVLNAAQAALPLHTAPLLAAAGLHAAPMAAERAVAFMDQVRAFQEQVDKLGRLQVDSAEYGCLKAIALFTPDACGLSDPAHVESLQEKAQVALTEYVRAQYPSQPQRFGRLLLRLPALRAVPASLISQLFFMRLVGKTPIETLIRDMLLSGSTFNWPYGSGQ

ERα [1] = molecular target: T2, ERα (Homo sapiens, UniProt P03372); experiment: Counterscreening, Firefly signal with ERα transient transfection (Firefly_ERa); conditions: 10 uM
T2 construct: expressed in transfected cells
T2 sequence (P03372 1-595): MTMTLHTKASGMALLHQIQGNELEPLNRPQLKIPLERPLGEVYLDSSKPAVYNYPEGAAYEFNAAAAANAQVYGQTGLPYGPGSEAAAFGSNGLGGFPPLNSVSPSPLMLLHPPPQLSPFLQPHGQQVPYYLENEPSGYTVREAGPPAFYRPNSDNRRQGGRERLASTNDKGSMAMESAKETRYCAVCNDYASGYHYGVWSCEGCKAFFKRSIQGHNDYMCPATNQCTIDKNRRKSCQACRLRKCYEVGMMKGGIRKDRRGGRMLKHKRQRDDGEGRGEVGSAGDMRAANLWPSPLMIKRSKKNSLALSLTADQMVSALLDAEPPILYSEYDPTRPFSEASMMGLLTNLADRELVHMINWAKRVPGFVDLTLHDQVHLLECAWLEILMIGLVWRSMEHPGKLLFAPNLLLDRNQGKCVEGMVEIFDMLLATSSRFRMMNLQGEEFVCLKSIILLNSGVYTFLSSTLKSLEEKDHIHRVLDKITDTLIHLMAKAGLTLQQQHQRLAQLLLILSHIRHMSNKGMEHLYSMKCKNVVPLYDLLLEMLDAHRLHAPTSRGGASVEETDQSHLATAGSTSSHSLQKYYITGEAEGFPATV
Method: The methodology for screening candidate compounds as NR2F6 agonists was as follows: For primary screening, hit criteria was ACT %>DMSO control+5*SD (DSO control) at 10 μM, or any compound with S/B>2. For rescreening, hit criteria was ACT %>DMSO control+3*SD (DSO control) in each replicate at 10 μM. For counterscreening, hit criteria was mean ACT<DMSO control+3*SD (DMSO control) with ERα transient transfection in duplicate at 10 μM.

Renilla = Renilla signal in NR2F6 agonist screening, cmpd/DMSO; conditions: Renilla, clone F4, read-out: Renilla F4, cmpd/DMSO (mean)
Renilla_ERa = experiment: Renilla signal in ERα counterscreen (Renilla_ERa); conditions: read-out: Renilla ERalpha transient, cmpd/DMSO (mean)
ERα [2] = molecular target: T2, ERα; experiment: Counterscreening, Firefly signal with ERα transient transfection (Firefly_ERa)

| SMILES | Firefly F4, cmpd/DMSO (mean) (NR2F6; 2 uM, clone F4) | Firefly F4, cmpd/DMSO (mean) (NR2F6; 10 uM, clone F4) | Firefly F4, cmpd/DMSO (mean) (NR2F6; 40 uM, clone F4) | Firefly ERalpha transient, cmpd/DMSO (mean) (ERα [1]) | fold induction at 2 µM (Renilla) | fold induction at 10 µM (Renilla) | fold induction at 40 µM (Renilla) | fold induction at 2 µM (Renilla_ERa) | fold induction at 10 µM (Renilla_ERa) | fold induction at 40 µM (Renilla_ERa) | Firefly ERalpha transient, cmpd/DMSO (mean) (ERα [2]; 2 uM) | Firefly ERalpha transient, cmpd/DMSO (mean) (ERα [2]; 40 uM) | Firefly F4, cmpd/DMSO (mean) (NR2F6; Table 15, 2 uM) | Firefly F4, cmpd/DMSO (mean) (NR2F6; Table 15, 10 uM) | Firefly F4, cmpd/DMSO (mean) (NR2F6; Table 15, 40 uM) | Firefly ERalpha transient, cmpd/DMSO (mean) (ERα [1]; Table 15) | fold induction at 2 µM (Renilla_ERa; Table 15) | fold induction at 10 µM (Renilla_ERa; Table 15) | Firefly ERalpha transient, cmpd/DMSO (mean) (ERα [2]; Table 15, 2 uM) | Firefly ERalpha transient, cmpd/DMSO (mean) (ERα [2]; Table 15, 40 uM) |
| --- | --- | --- | --- | --- | --- | --- | --- | --- | --- | --- | --- | --- | --- | --- | --- | --- | --- | --- | --- | --- |
| O=c1cccc2n1CC1CC2CN(c2nc(N3CCCC3)nc(N3CCCC3)n2)C1 (centres unmarked) [Compound 26] | 1.0 | 1.1 | 1.3 | 1.3 | 1 | 0.7 | 0.7 | 0.9 | 1 | 1 | 1.0 | 1.1 | – | – | – | – | – | – | – | – |
| O=c1cccc2n1CC1CC2CN(c2nc(Cl)nc(NCCN3CCOCC3)n2)C1 (centres unmarked) [Compound 27] | 1.0 | 1.0 | 1.0 | 1.2 | 0.9 | 0.9 | 0.8 | 1.1 | 1.1 | 1.2 | 1.2 | 1.2 | – | – | – | – | – | – | – | – |
| CCOC(=O)Cc1sc(Nc2nc(C)cc(C)n2)nc1-c1ccccc1 [Compound 28] | 1.2 | 0.9 | 0.6 | 0.5 | 1.1 | 0.8 | 0.6 | 1.2 | 0.8 | 0.7 | 1.0 | 0.6 | – | – | – | – | – | – | – | – |
| Cc1cc(C)nc(Nc2nc(-c3ccccc3)c(CC(=O)O)s2)n1 [Compound 29] | 0.9 | 1.4 | 1.5 | 1.7 | 0.8 | 0.9 | 0.8 | 1.1 | 1 | 1.1 | 1.2 | 2.2 | – | – | – | – | – | – | – | – |
| Cc1cc(-c2ccccc2)nc(Nc2nc(-c3ccccc3)c(CC(=O)O)s2)n1 [Compound 30] | 1.5 | 1.6 | 1.8 | 1.5 | 1.2 | 2.3 | 3.4 | 1.2 | 1.2 | 1 | 1.1 | 1.3 | – | – | – | – | – | – | – | – |
| O=c1cccc2n1CC1CC2CN(c2nc(N3CCOCC3)nc(N3CCOCC3)n2)C1 (centres unmarked) [Compound 31] | 0.8 | 1.0 | 0.9 | 1.2 | 1 | 1 | 1 | 1 | 1.1 | 1.1 | 0.8 | 1.0 | – | – | – | – | – | – | – | – |
| O=c1cccc2n1CC1CC2CN(c2nc(NCCC3=CCCCC3)nc(N3CCCC3)n2)C1 (centres unmarked) [Compound 32] | 0.8 | 1.3 | 0.8 | 1.2 | 1.2 | 1.4 | 1 | 1.2 | 1.3 | 1.1 | 1.2 | 0.7 | – | – | – | – | – | – | – | – |
| CCOC(=O)c1cnc2c(C)cc(C)cc2c1NCCCN1CCCCC1 [Compound Z8] | – | – | – | – | – | – | – | – | – | – | – | – | 2.6 | 4.0 | 0.7 | 2.4 | 1.4 | 1.4 | 2.2 | 0.4 |
| CCOC(=O)c1cnc2c(C)cc(C)cc2c1NCCCN1CCCCC1 [Compound Z11] | – | – | – | – | – | – | – | – | – | – | – | – | 3.5 | 1.2 | 0.5 | 1.6 | – | – | 2.1 | 0.6 |
| CCOC(=O)c1cnc2c(C)cc(C)cc2c1NCCCN1CCCCC1 [Compound Z12] | – | – | – | – | – | – | – | – | – | – | – | – | 3.9 | 1.8 | 0.4 | 1.3 | – | – | 2.4 | 0.4 |
| CCOC(=O)c1cnc2c(C)cc(C)cc2c1NCCCN1CCCCC1 [Compound Z17] | – | – | – | – | – | – | – | – | – | – | – | – | 1.5 | 6.5 | 0.6 | 9.5 | – | – | 1.7 | 2.9 |
| CCOC(=O)c1cnc2c(C)cc(C)cc2c1NCCCN1CCCCC1 [Compound Z19] | – | – | – | – | – | – | – | – | – | – | – | – | 1.3 | 6.3 | 0.7 | 12.7 | – | – | 1.9 | 0.7 |
